Experimental data taken from patent US20100113484A1, “TREATING AGENT OF UROPATHY” (ASKA PHARMACEUTICAL CO., LTD., priority 2006, published 2010).
Like-named read-outs stand apart in the source and are kept apart here.

Columns and labels:
[1] = biological target: T1, human recombinant PDE5 protein (Homo sapiens, UniProt O76074); assay: Measurement of PDE5-inhibiting activity; type: biochemical; conditions: Tables A and C; read-out: Inhibiting Activity (IC50 value) PDE5
T1 construct: made in house; host or cells: COS-1 cells, transient transfection with pcDNA 3.1 (+); supernatant of the homogenate, not purified
Description: PCR condition: [94° C., 2 min]×1 cycle, [(94° C., 30 sec), (65° C., 30 sec), (68° C., 3 min)]×25 cycles, [68° C., 6 min]×1 cycle
Thus obtained hsPDE5A1 fragment was given a restricted enzymatic treatment with XBaI and EcoRI, and thereafter inserted into pcDNA 3.1 (+) expression vector (Invitrogen) to let it serve as a human PDE5 expression vector.
Human PDE5 expression vector-transformed Escherichia coli was mass incubated to produce a large amount of human PDE5 expression vector, which was transiently transfected into COS-1 cells, with LIPOFECTAMINE 2000 Reagent (GIBCO). The cells were homogenized in ice-cooled buffer A and centrifuged at 4° C., 14,000×g for 10 minutes. The supernatant was isolated to provide human recombinant PDE5 protein solution.

[2] = biological target: T2, human recombinant PDE9 protein (Homo sapiens, UniProt O76083); assay: Measurement of PDE9-inhibiting activity ([3H]-cGMP hydrolysis); type: biochemical
T2 construct: made in house; host or cells: COS-1 cells, transient transfection with pcDNA 3.1 (+); supernatant of the homogenate, not purified
T2 sequence (O76083 whole entry): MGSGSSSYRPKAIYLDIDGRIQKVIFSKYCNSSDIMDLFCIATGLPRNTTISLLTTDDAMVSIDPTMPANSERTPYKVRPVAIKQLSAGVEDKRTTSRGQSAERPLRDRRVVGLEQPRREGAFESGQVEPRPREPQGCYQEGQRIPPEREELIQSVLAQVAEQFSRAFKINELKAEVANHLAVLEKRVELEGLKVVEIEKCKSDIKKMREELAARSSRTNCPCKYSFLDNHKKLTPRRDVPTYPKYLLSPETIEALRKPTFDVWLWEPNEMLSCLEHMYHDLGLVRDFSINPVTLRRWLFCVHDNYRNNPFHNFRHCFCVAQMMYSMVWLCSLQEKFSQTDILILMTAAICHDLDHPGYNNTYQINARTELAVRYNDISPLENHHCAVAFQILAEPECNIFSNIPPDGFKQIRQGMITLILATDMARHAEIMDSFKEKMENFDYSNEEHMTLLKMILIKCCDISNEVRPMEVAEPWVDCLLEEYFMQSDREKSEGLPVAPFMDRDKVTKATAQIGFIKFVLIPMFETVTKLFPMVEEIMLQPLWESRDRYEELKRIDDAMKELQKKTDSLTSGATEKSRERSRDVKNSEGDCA
Description: Based on the base sequence of hsPDE9A1 registered with GenBank database (accession No.: AF048837), hsPDE9A1 fragment was amplified by polymerase chain reaction under the following conditions, using the following sequence (Amasham Pharmacia Biotech) as the primer and Human Prostate […] cDNA library (CLONTECH) as the template DNA, with Pfu Turbo DNA polymerase ([…]):
PCR condition: [95° C., 5 min]×1 cycle, [(95° C., 1 min), (58° C., 2 min), (72° C., 3 min)]×25 cycles, [72° C., 10 min]×1 cycle
Thus obtained hsPDE9A1 fragment was given a restricted enzymatic treatment with NheI and NotI, and thereafter inserted into pcDNA 3.1 (+) expression vector (Invitrogen) to let it serve as a human PDE9 expression vector.
Human PDE9 expression vector-transformed Escherichia coli was mass incubated to produce a large amount of human PDE9 expression vector, which was transiently transfected into COS-1 cells, with LIPOFECTAMINE 2000 Reagent (GIBCO). The cells were homogenized in ice-cooled buffer A (40 mmol/L Tris-HCl, pH7.5, 15 mmol/L benzamidine, 15 mmol/L 2-mercaptoethanol, 1 μg/mL Pepstatin A, 1 μg/mL Leupeptin, 5 mmol/L EDTA) and centrifuged at 4° C., 14,000×g for 10 minutes. The supernatant was isolated to provide human recombinant PDE9 protein solution.
This mixed solution was incubated at 30° C. for 30 minutes and the enzymatic reaction of PDE9 was terminated by heating the system in boiling water for 90 seconds. Returning the system to room temperature, 50 μL of Snake venom (SIGMA: 1 mg/mL) was added, followed by 10 minutes' incubation at 30° C., to convert the [^3H]-5′-GMP produced in the previous reaction to [^3H]-guanosine. […] Thereafter [^3H]-guanosine was eluted with 3 mL of 3 mol/L aqueous ammonia and its radiation activity was measured with liquid scintillation counter.
PDE9 inhibition of the tested compound can be calculated by the following formula: […]
From the percent inhibition at various concentration levels of each tested compound, its IC50 value against PDE9 can be determined.

[3] = system: partial urethra obstruction model in guinea pigs; assay: Dysuria pathological model: partial urethra obstruction model, cystometry; type: in vivo, Hartley female guinea pigs; conditions: guinea pig, i.v., 1 mg/kg
Description: Three-four weeks old Hartley female guinea pigs (Japan SLC, Inc.) were given celiotomy under anesthesia with pentobarbital (30 mg/kg i.p.) and in their urethra to the peripheral side by 1-2 mm from the bladder neck, each a polyethylene tube of 1.4 mm in width and 2.0 mm in inner diameter was placed. After closing the wound, the guinea pigs were bred for at least 3 weeks to produce partial urethra obstruction model in guinea pigs in which occurrence of intravesical pressure rise not accompanied by micturition (uninhibited contraction) and residual urine were observed.
The model was catheterized under anesthesia with urethane (1 g/kg i.p.) at the apex of urinary bladder and right jugular vein for cystometrography and intravenous administration, respectively. The other end of the bladder catheter was connected to a pressure transducer and infusion pump via a three way stop-cock, and physiological saline was continuously infused into the bladder through the infusion pump at a rate of 0.4 mL/min to induce micturition reflex. Immediately after the micturition reflex was induced, infusion of physiological saline into the bladder was stopped. The intravesical pressure at the time the micturition reflex was induced was measured with the pressure transducer, and the obtained cystometrogram was recorded with pen recorder. The urine voided was collected with disposable type weighing dish and its weight was measured. Further the physiological saline remained in the bladder was sucked with syringe via the bladder catheter and the residual urine volume was measured. The operations of suspending the infusion of physiological saline upon induction of micturition reflex, and about 1 minute thereafter resuming the infusion of physiological saline to induce micturition reflex were repeated plural times (generally 4 times) to stabilize the micturition reflex.
After stabilizing the micturition reflex, a compound solution (prepared by dissolving the compound or methanesulfonic acid salt thereof in DMSO and diluting it with physiological saline or distilled water) or physiological saline was administered into the vein at a volume of 10 mL/kg over 4 minutes, and simultaneously the above-described micturition reflex operations were repeated until 30 minutes passed after initiation of the administration, while measuring the intravesical pressure and the volumes of micturition and residual urine. Also the frequency of uninhibited contraction occurrence during the above-described operations was recorded.

[4] = Tables A and C, read-out: Inhibiting Activity (IC50 value) PDE9
[5] = Table B, read-out: Inhibiting Activity IC50 PDE9

For “2-(3-Chloro-4-fluorobenzyl)-5-methyl-4-oxo-3,4-dihydrothieno-[2,3-d]pyrimidine-6-carboxylic acid [A-10]”, the IC50 [1] was 3420 nM and the IC50 [2, 4] was 38 nM.

With “2-(5-Chlorothiophen-2-ylmethyl)-5-methyl-4-oxo-3,4-dihydrothieno[2,3-d]pyrimidine-6-carboxylic acid [A-3]” the IC50 [1] was 6900 nM and the IC50 [2, 4] was 34 nM.

`Cc1c(C(=O)O)sc2nc(Cc3ccsc3)[nH]c(=O)c12` [A-1, 5-Methyl-4-oxo-2-(thiophen-3-ylmethyl)-3,4-dihydrothieno[2,3-d]-pyrimidine-6-carboxylic acid] was tested, and the IC50 [1] was 17800 nM and the IC50 [2, 4] was 22 nM.

For `Cc1c(C(=O)O)sc2nc(Cc3cccc(Br)c3)[nH]c(=O)c12` [A-5, 2-(3-Bromobenzyl)-5-methyl-4-oxo-3,4-dihydrothieno[2,3-d]-pyrimidine-6-carboxylic acid], the IC50 [1] was 4430 nM and the IC50 [2, 4] was 24 nM.

Work on `Cc1c(C(=O)O)sc2nc(Cc3cccc(C(F)(F)F)c3)[nH]c(=O)c12` [A-6, 5-Methyl-4-oxo-2-(3-trifluoromethylbenzyl)-3,4-dihydrothieno[2,3-d]pyrimidine-6-carboxylic acid] yielded an IC50 [1] of 22200 nM and an IC50 [2, 4] of 34 nM.

`Cc1c(C(=O)O)sc2nc(Cc3ccccc3SC(F)(F)F)[nH]c(=O)c12` [A-8, 5-Methyl-4-oxo-2-(2-trifluoromethylthiobenzyl)-3,4-dihydrothieno[2,3-d]pyrimidine-6-carboxylic acid] gave an IC50 [1] of 20000 nM and an IC50 [2, 4] of 46 nM.

`Cc1c(C(=O)O)sc2nc(Cc3ccc(F)c(C(F)(F)F)c3)[nH]c(=O)c12` [A-9, 2-(4-Fluoro-3-trifluoromethylbenzyl)-5-methyl-4-oxo-3,4-dihydrothieno[2,3-d]pyrimidine-6-carboxylic acid] showed an IC50 [1] of 18900 nM and an IC50 [2, 4] of 44 nM.

`Cc1c(C(=O)O)sc2nc(Cc3cc(Cl)ccc3F)[nH]c(=O)c12` [A-11, 2-(5-Chloro-2-fluorobenzyl)-5-methyl-4-oxo-3,4-dihydrothieno-[2,3-d]pyrimidine-6-carboxylic acid] gave an IC50 [1] of 5710 nM and an IC50 [2, 4] of 22 nM.

`Cc1c(C(=O)O)sc2nc(Cc3cc(F)ccc3F)[nH]c(=O)c12` [A-12, 2-(2,5-Difluorobenzyl)-5-methyl-4-oxo-3,4-dihydrothieno-[2,3-d]pyrimidine-6-carboxylic acid] showed an IC50 [1] of 19800 nM and an IC50 [2, 4] of 42 nM.

In the case of `Cc1c(C(=O)O)sc2nc(CC3=CCCC3)[nH]c(=O)c12` [A-13, 2-(Cyclopent-1-enylmethyl)-5-methyl-4-oxo-3,4-dihydrothieno-[2,3-d]pyrimidine-6-carboxylic acid], the IC50 [1] is reported as 8590 nM and the IC50 [2, 4] is reported as 28 nM.

`Cc1c(C(=O)O)sc2nc(CC3=CCCCC3)[nH]c(=O)c12` [A-14, 2-(Cyclohex-1-enylmethyl)-5-methyl-4-oxo-3,4-dihydrothieno-[2,3-d]pyrimidine-6-carboxylic acid] was tested, and the IC50 [1] was 1640 nM and the IC50 [2, 4] was 54 nM.

In the case of `O=C(O)c1cc2c(=O)[nH]c(Cc3ccsc3)nc2s1` [A-15, 4-Oxo-2-(thiophen-3-ylmethyl)-3,4-dihydrothieno-[2,3-d]pyrimidine-6-carboxylic acid], the IC50 [1] is reported as 34900 nM and the IC50 [2, 4] is reported as 14 nM.

`O=C(O)c1cc2c(=O)[nH]c(Cc3cccs3)nc2s1` [A-16, 4-Oxo-2-(thiophen-2-ylmethyl)-3,4-dihydrothieno[2,3-d]-pyrimidine-6-carboxylic acid] showed an IC50 [1] of 41200 nM and an IC50 [2, 4] of 15 nM.

`O=C(O)c1cc2c(=O)[nH]c(Cc3ccccc3)nc2s1` [A-17, 2-Benzyl-4-oxo-3,4-dihydrothieno[2,3-d]pyrimidine-6-carboxylic acid] was tested, and the IC50 [1] was 34400 nM and the IC50 [2, 4] was 19 nM.

In the case of `O=C(O)c1cc2c(=O)[nH]c(Cc3cccc(Cl)c3)nc2s1` [A-18, 2-(3-Chlorobenzyl)-4-oxo-3,4-dihydrothieno[2,3-d]-pyrimidine-6-carboxylic acid], the IC50 [1] is reported as 15800 nM and the IC50 [2, 4] is reported as 10 nM.

`O=C(O)c1cc2c(=O)[nH]c(Cc3cccc(C(F)(F)F)c3)nc2s1` [A-19, 4-Oxo-2-(3-trifluoromethylbenzyl)-3,4-dihydrothieno-[2,3-d]pyrimidine-6-carboxylic acid] gave an IC50 [1] of 30200 nM and an IC50 [2, 4] of 15 nM.

`O=C(O)c1cc2c(=O)[nH]c(Cc3ccc(Cl)c(Cl)c3)nc2s1` [A-20, 2-(3,4-Dichlorobenzyl)-4-oxo-3,4-dihydrothieno[2,3-d]-pyrimidine-6-carboxylic acid] showed an IC50 [1] of 2280 nM and an IC50 [2, 4] of 9 nM.

`Cc1c(C(=O)O)sc2nc(Cc3ccsc3)[nH]c(=S)c12` [A-22, 5-Methyl-2-(thiophen-3-ylmethyl)-4-thioxo-3,4-dihydrothieno-[2,3-d]pyrimidine-6-carboxylic acid] showed an IC50 [1] of 1640 nM and an IC50 [2, 4] of 9 nM.

`Cc1c(C(=O)O)sc2nc(Cc3cccs3)[nH]c(=S)c12` [A-23, 5-Methyl-2-(thiophen-2-ylmethyl)-4-thioxo-3,4-dihydrothieno-[2,3-d]pyrimidine-6-carboxylic acid] showed an IC50 [1] of 1540 nM and an IC50 [2, 4] of 31 nM.

`COc1ccc(Cc2nc3cc(C(=O)O)ccc3c(=O)[nH]2)cc1OC` [B-3, 2-(3,4-Dimethoxybenzyl)-4-oxo-3,4-dihydroquinazoline-7-carboxylic acid] was tested, and the “Inhibiting Activity inhibition ratio at 1 μM PDE9” value ([2]; Table B) was “inhibition ratio = 11%”.

Work on `COc1ccccc1Cc1nc2cc(C(=O)O)ccc2c(=O)[nH]1` [B-4, 2-(2-Methoxybenzyl)-4-oxo-3,4-dihydroquinazoline-7-carboxylic acid] yielded an IC50 [2, 5] of 1290 nM.

In the case of `COc1cccc(Cc2nc3cc(C(=O)O)ccc3c(=O)[nH]2)c1` [B-5, 2-(3-Methoxybenzyl)-4-oxo-3,4-dihydroquinazoline-7-carboxylic acid], the “Inhibiting Activity inhibition ratio at 1 μM PDE9” value ([2]; Table B) is reported as “inhibition ratio = 41%”.

`O=C(O)c1ccc2c(=O)[nH]c(Cc3ccccn3)nc2c1` [B-6, 4-Oxo-2-(2-pyridylmethyl)-3,4-dihydroquinazoline-7-carboxylic acid] showed an IC50 [2, 5] of 1290 nM.

In the case of `O=C(O)c1ccc2c(=O)[nH]c(Cc3cccnc3)nc2c1` [B-7, 4-Oxo-2-(3-pyridylmethyl)-3,4-dihydroquinazoline-7-carboxylic acid], the “Inhibiting Activity inhibition ratio at 1 μM PDE9” value ([2]; Table B) is reported as “inhibition ratio = 30%”.

Compound `O=C(O)c1ccc2c(=O)[nH]c(Cc3cccs3)nc2c1` [B-8, 4-Oxo-2-(2-thienylmethyl)-3,4-dihydroquinazoline-7-carboxylic acid] has an IC50 [2, 5] of 93 nM.

For `Cn1c(Cc2cccc(Cl)c2)nc2cc(C(=O)O)ccc2c1=O` [B-9, 2-(3-Chlorobenzyl)-3-methyl-4-oxo-3,4-dihydroquinazoline-7-carboxylic acid], the IC50 [2, 5] was 4660 nM.

With `CC(C)c1ncc2c(=O)[nH]c3cc(Cl)ccc3n12` [C-1 (methanesulfonate)] the “Frequency of occurrence of uninhibited contraction volume change” value [3] was “+0.77 times/min” and the “Residual urine volume volume change” value [3] was 0.22 mL.
